“Also recorded” adds a separate entry of the source.
Assays:
C. elegans mutant osm-9 = assay: Transgenic rescue of C. elegans mutant osm-9 (osmotic avoidance, nose touch, odorant avoidance); format: in vivo, Caenorhabditis elegans; details: for rescue of lack of osmotic avoidance and lack of response to nose touch: expressed in ASH neurons (sra6 promotor) of osm-9 worms
Method: The coding region of the rat VR-OAC cDNA was cloned into the C. elegans expression vector pPD49.26 that contained the sra6 promotor. This promotor directs expression in the ASH and ASI neurons. Purified DNA was injected into the gonad of hermaphroditic worms, strain N2, together with the marker gene elt-2/green fluorescent protein (GFP) which directs expression of GFP in C. elegans intestinal cells. Transgenic offspring could be identified by GFP fluorescence, and VR-OAC transgenic lines of worms were generated. Likewise, several transgenic lines of worms were established and maintained on an osm-9 (ky-10 allele) genetic background. In these worms, an osmotic avoidance in response to hyperosmotic stimuli was clearly present, as was sensitivity to nose touch (FIGS. 15A and 15B). The avoidance reactions were assayed on single animals as previously described^34. Odorant avoidance in response to octanone was not present. […] In order to confirm that the observed rescue is mediated by the ASH neuron, both ASH neurons were laser ablated in osm-9/VR-OAC transgenic (tg) worms. This procedure completely abolished rescue (FIGS. 15A and 15B). In order to visualize subcellular localization of the VR-OACtg in the ASH neuron, GFP was tagged to the C-terminus of VR-OAC. The tagged protein could be localized to the cilia of the ASH neuron in the worm nose where fluorescence was stronger than in any other part of this neuron. Rescue was not impaired in VR-OAC/GFPtg osm-9 worms (FIGS. 15A and 15B).
In order to understand better the specificity of the observed rescue, VR-OACtg worms were crossed to C. elegans mutants which genetically define the alternate mechanosensory pathway. VR-OACtg worms of the following mutant lines were generated: ocr-2, odr-3, glr-1, osm-10 and double-mutants of the former with osm-9. These lines were tested for osmotic avoidance, nose touch and odorant avoidance. […] In another control experiment addressing the specificity of the observed rescue, we expressed rat VR1 under the control of the sra6 promotor in ASH neurons of wild type and osm-9 worms. No rescue was observed. However, in osm-9 as well as in wild type worms tg for VR1 there was a strong avoidance response to vanilloids which was absent in non-tg worms.
Next, we wanted to use the transgenic rescue of osm-9 by VR-OAC as an in-vivo model in order to better understand structure-function relationships of VR-OAC. Gross deletions were constructed lacking either the N-terminal intracellular domain (aminoacid [AA] 1-410 of VR-OAC), the C-terminal intracellular domain (AA 741-781 of VR-OAC) or both. Three lines of worms were established for each of the gross deletions. The line with the most pronounced rescue as an indication of highest expression level of tg was investigated more in depth. […] The N-terminus and the C-terminus thus appear dispensable for the response to osmotic and mechanical stimuli, and, most likely, for proper intracellular transport in the ASH neuron. In addition to these gross deletions, we wanted to learn more about the structure-function relationship of strategically positioned single amino acid exchanges in the pore-loop domain of VR-OAC. As for the gross deletions, three lines of worms were generated for each point mutation. […]

VR-OAC [1] = assay: Ca2+ imaging (fluo-4) of CHO cells transfected with VR-OAC or variants; format: cell-based, rat and chicken; details: for response of VR-OAC-transfected cells to ligand (fluo-4 Ca2+ imaging): chicken and rat VR-OAC-transfected cells, resiniferatoxin 0.2 μM and 5 μM, anandamide 5 μM and 25 μM; for fluo-4 fluorescence upon exposure to hypotonic medium: stores depleted with 10 μM thapsigargin and potentiation channels blocked with 20 μM SKF 96365 (combined)
Excerpt: (§1) To confirm that VR-OAC constitutes an ion channel and to determine the stimulus that gates it, we expressed the rat and chicken proteins in stably transfected Chinese hamster ovary (CHO) cells. Untransfected CHO cells and a line stably transfected with a VR1-expressing plasmid served as controls. We loaded VR-OAC-expressing cells with the Ca^2+ indicator fluo-4 AM and used conventional and confocal icroscopy to monitor changes in fluorescence, which reflected alterations in the ntracellular Ca^2+ concentration.
(§2) The complete cDNAs of rat VR-OAC, chicken VR-OAC, and rat VR1 were subcloned into the eukaryotic expression vector pcDNA3.1 (Invitrogen, Carlsbad, Calif.). CHO-K1 cells (ATCC, Manassas, Va.) were transfected with these vectors and selected with G418 (Life Technology, Gaithersburg, Md.). Stable clones that expressed the mRNAs were identified by Northern blot analysis and, for VR1, by response to ligand.
(§3) For Ca2+ imaging, cells were loaded for 30 min at room temperature in […] fluo-4 AM ester (Molecular Probes, Eugene, Oreg.) in isoosmotic Hille's saline solution (130 mM Na^+, 2.5 mM K^+, 2 mM Ca2+, 1 mM Mg2+, 138.5 mM Cl−, 20 mM D-glucose, and 10 mM HEPES at pH 7.3; Babcock et al., 1997) containing 2 mM probenecid. The cells were then washed and incubated for 15 min at 30° C. to promote deacetylation of internalized fluo-4 AM ester.
(§4) Confocal analysis was performed with an MRC-1024ES system (Bio-Rad, Hercules, Calif.) mounted on an inverted microscope (Zeiss Axiovert 135TV, Carl Zeiss, Jena, Germany). Confocal image series were collected using Lasersharp software (BioRad) running on a Poweredge 2300 computer (Dell Computer, Round Rock, Tex.). Images were also recorded with a cooled digital camera (Micromax, Princeton Instruments Inc., Princeton, N.J.) atop a Zeiss Axioplan microscope. These images were analyzed using IPLab software (Scanalytics Inc., Fairfax, Va.). Analysis of single-frame or single-cell integrated signal density was performed on Macintosh computers running NIH Image software (version 1.61; O'Neill et al., 1989).
(§5) Solutions with different osmotic strengths were created by adding water or mannitol to Hille's saline solution. Unless otherwise noted, the Ca2+ concentration of all solutions was held constant at 2 mM. The resultant osmolalities were verified with a vapor-pressure osmometer (Vapro 5520, Wescor Inc., Logan, Utah). The test solutions included a graded series of hypotonic solutions (with 220 mmol kg-1 the lowest osmolality), a hypertonic solution (330 mmol kg-1), isotonic solutions at 295 mmol kg-1 with graded concentrations of Na+ (with 50 mM the lowest concentration), and hypotonic solutions containing 100 μM, 250 μM, and 500 μM GdCl3. Ligands used for stimulation were resiniferatoxin (Sigma Chemicals, St. Louis, Mo.) at 0.2 μM and 5 μM and anandamide (Cayman Chemical, Ann Arbor, Mich.) at 5 μM and 25 μM. To test whether VR-OAC is directly gated by increases in temperature, we exposed dishes containing fluo-4-loaded cells to temperatures ranging from room temperature to 30° C., 37° C., 40° C., 45° C., 50° C., and 55° C. Images were acquired during the thermal stimulus series at intervals of 60 s for up to 10 min after the start of heating. A series of calibration experiments confirmed that this interval ensured proper thermal equilibration. A similar procedure was used to test the response to hypotonicity at various temperatures.

rat VR1 = target: T1, rat VR1 (Rattus norvegicus, UniProt O35433); assay: Ca2+ imaging (fluo-4) of control CHO cells expressing rat VR1; format: cell-based; details: control CHO line expressing rat VR1; 200 nM resiniferatoxin (FIG. 10A legend)
T1 construct: The complete cDNAs of rat VR-OAC, chicken VR-OAC, and rat VR1 were subcloned into the eukaryotic expression vector pcDNA3.1; expressed in transfected cells
T1 sequence (O35433 whole entry): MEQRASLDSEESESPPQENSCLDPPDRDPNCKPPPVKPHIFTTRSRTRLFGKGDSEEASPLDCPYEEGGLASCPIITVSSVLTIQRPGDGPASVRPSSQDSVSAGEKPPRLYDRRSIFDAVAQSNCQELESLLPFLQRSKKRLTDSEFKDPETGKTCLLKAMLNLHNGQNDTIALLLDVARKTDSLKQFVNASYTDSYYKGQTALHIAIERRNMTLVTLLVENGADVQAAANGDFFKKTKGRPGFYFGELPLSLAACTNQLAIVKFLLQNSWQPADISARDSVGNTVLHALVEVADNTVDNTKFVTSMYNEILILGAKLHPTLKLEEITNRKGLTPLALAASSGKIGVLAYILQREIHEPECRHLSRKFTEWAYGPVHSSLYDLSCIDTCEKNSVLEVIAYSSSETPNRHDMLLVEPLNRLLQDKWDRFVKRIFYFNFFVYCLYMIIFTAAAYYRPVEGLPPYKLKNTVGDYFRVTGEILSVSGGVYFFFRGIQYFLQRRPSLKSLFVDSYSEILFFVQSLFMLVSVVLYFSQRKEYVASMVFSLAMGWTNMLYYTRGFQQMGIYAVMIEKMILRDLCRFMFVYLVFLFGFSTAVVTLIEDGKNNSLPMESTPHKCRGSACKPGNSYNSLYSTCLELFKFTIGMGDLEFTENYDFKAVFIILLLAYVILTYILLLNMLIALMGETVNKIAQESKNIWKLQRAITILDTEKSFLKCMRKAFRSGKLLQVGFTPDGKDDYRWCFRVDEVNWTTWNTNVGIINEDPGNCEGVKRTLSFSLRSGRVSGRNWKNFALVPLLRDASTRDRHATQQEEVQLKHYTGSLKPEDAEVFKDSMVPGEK
Excerpt: as §1
as §2, with “ligand. […]” for “ligand.”
Confocal analysis was performed with an MRC-1024ES system (Bio-Rad, Hercules, Calif.) mounted on an inverted microscope (Zeiss Axiovert 135TV, Carl Zeiss, Jena, Germany). […] Images were also recorded with a cooled digital camera (Micromax, Princeton Instruments Inc., Princeton, N.J.) atop a Zeiss Axioplan microscope. These images were analyzed using IPLab software (Scanalytics Inc., Fairfax, Va.). […]

VR-OAC [2] = assay: Whole-cell and patch recordings from VR-OAC-transfected CHO-K1 cells; format: cell-based, chicken or rat; set-up: effect on VR-OAC-transfected cells (whole-cell current) / effect on whole-cell current: dose or concentration left out as unconfirmed; details: for VR-OAC currents on stimulation with hypotonic solution: after incubation in 10 μM thapsigargin and 20 μM SKF 96365 (combined)
Method: Electrophysiological characterization of VR-OAC was performed at room temperature on CHO-K1 cell lines stably or transiently transfected with one of four expression vectors, pcDNA3.1 (Invitrogen) with inserts bearing chicken or rat VR-OAC, eGFP-OAC, or eGFP-ΔOAC. These cells were selected because untransfected HEK 293 cells responded to hypotonic stress and Xenopus laevis oocytes are known to respond to membrane stretch (Yang and Sachs, 1989). Cells plated on glass-bottom Petri dishes were observed through a 40× water-immersion objective lens on an inverted microscope (Aviovert 100 M, Carl Zeiss) equipped with Nomarski optics. We recorded whole-cell and patch currents with a voltage-clamp amplifier (EPC-7, List-Electronic, Darmstadt-Eberstadt, Germany). Voltage stimuli were generated and responses recorded with a computer (P6400 GX1, Dell) running LabVIEW 5.0 software (National Instruments, Austin, Tex.). Voltage and current responses were low-pass filtered at 2 kHz with an eight-pole Bessel filter and sampled at 5 kHz.
Tight-seal pipettes were bent to permit an orthogonal approach to a cell's surface and heat-polished to give resistances of 3-5 MΩ. Internal solutions typically contained 117 mM NaCl, 5 mM HEPES, 1 mM EDTA, and mannitol to achieve isotonicity. EDTA was omitted in the pipette solution during experiments in which the bath solution also lacked EDTA. Pipette and cell capacitance were largely compensated; series resistance compensation ranged from 10% to 60%. Ground reference was provided by an Ag—AgCl electrode through a 150 mM KC1 agar bridge.
A fluid-jet stimulus was delivered by applying a pressure pulse of about 3 kPa to the rear of a glass pipette with a tip diameter of 5-10 μm. Filled with saline solution identical to that in the recording chamber, the pipette's tip was oriented perpendicular to the bottom of the chamber and placed roughly 10 μm above the target cell. The onset and termination of the jet were regulated by a solenoid valve (Picospritzer II, General Valve Corporation, Fairfield, N.J.) under computer control. During whole-cell recording, cells were maintained in isotonic or slightly hypertonic solutions. Mechanical stimulation was accomplished by perfusion of hypotonic solutions. […] Isotonic and hypertonic solutions were prepared by supplementing the standard hypotonic solution with mannitol to respectively 295 mmol kg−1 and 340 mmol kg−1.
In studies of the effects of Ca2+ and Gd3+ on whole-cell currents, hypotonic test solutions included respectively 2 mM CaCl2 or […] GdCl3. Because carboxylic-acid Ca2+ chelators are known to compromise the capacity of GdC13 to block mechanosensitive channels (Caldwell et al., 1998), EDTA was excluded from the latter medium and the pipette solution. […]

VR-OAC [3] = target: T2, VR-OAC (Rattus norvegicus, UniProt Q9ERZ8, M680K); assay: Ca2+ imaging (fluo-4) of CHO cells transfected with VR-OAC or variants; format: cell-based, rat and chicken; details: tissue culture cells
T2 construct: The complete cDNAs of rat VR-OAC, chicken VR-OAC, and rat VR1 were subcloned into the eukaryotic expression vector pcDNA3.1; expressed in transfected cells; host or cells: CHO-K1 (stably or transiently transfected, pcDNA3.1)
T2 sequence (Q9ERZ8 whole entry M680K): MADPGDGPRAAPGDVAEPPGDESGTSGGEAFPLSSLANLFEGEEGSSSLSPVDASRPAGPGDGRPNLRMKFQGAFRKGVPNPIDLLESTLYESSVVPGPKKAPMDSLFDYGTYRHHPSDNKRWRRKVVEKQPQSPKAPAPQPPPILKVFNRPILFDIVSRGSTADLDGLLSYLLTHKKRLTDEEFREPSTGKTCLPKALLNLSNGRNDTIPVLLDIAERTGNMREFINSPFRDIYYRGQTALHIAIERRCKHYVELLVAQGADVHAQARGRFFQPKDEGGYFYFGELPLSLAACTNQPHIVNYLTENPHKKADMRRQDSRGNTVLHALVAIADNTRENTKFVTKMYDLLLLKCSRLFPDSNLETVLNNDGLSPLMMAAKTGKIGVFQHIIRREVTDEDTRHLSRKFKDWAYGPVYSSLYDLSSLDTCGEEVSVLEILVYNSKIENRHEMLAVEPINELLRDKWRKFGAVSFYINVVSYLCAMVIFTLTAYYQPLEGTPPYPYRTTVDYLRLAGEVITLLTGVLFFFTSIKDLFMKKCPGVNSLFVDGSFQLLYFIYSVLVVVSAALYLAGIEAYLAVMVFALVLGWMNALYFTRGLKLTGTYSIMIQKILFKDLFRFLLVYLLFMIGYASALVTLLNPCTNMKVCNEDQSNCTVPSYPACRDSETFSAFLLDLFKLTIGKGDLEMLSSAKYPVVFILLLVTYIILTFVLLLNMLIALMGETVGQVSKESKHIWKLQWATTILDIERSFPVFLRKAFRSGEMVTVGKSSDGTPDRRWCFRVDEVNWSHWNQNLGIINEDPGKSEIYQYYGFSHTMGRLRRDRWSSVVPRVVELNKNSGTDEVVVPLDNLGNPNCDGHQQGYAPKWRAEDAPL
Excerpt: as §1, §2, §3, §4, §5

With “rat VR-OAC: rat orthologue of VR-OAC, 871 amino acids” the “rescue of lack of osmotic avoidance and lack of response to nose touch” value (“rescue of lack … to nose touch” for short) (C. elegans mutant osm-9) was “partial rescue” and the “rescue of lack of odorant avoidance” value (C. elegans mutant osm-9; osm-9 worms, octanone) was “no rescue”.

For C=C(C)[C@]12C[C@@H](C)[C@@]34O[C@](Cc5ccccc5)(O[C@@H]1[C@@H]3C=C(COC(=O)Cc1ccc(O)c(OC)c1)C[C@]1(O)C(=O)C(C)=C[C@@H]41)O2 [resiniferatoxin], the “response of VR-OAC-transfected cells to ligand (fluo-4 Ca2+ imaging)” value (VR-OAC [1]) was “responded neither” and the “intracellular Ca^2+ concentration / Ca^2+ influx (fluo-4 fluorescence)” value (rat VR1) was “strong Ca^2+ influx; also recorded: increases the intracellular Ca^2+ concentration”.

[Gd+3] [Gd^3+, Gadolinium ion] was tested, and the “effect on VR-OAC-transfected cells (whole-cell current)” value (VR-OAC [2]; Gd^3+ extracellular, within the first few minutes) was “resembled that of Ca^2+” and the “effect on whole-cell current” value (VR-OAC [2]; Gd^3+, more protracted exposure) was “irreversibly abolished the whole-cell current”.

With COc1ccc(CCCOC(Cn2ccnc2)c2ccc(OC)cc2)cc1 (stereo not drawn) [SKF 96365] the “fluo-4 fluorescence upon exposure to hypotonic medium” value (VR-OAC [1]) was “does not increase” and the “VR-OAC currents on stimulation with hypotonic solution” value (VR-OAC [2]) was “displayed characteristic VR-OAC currents”.

CCCCC/C=C\C/C=C\C/C=C\C/C=C\CCCC(=O)NCCO [anandamide] was tested, and the “response of VR-OAC-transfected cells to ligand (fluo-4 Ca2+ imaging)” value (VR-OAC [1]) was “responded neither”.

In the case of C/C=C(/C)C(=O)O[C@H]1C(C)=C2[C@H]([C@@H]1OC(=O)CCCCCCC)[C@@](C)(OC(C)=O)C[C@H](OC(=O)CCC)[C@@]1(O)[C@H]2OC(=O)[C@@]1(C)O [thapsigargin], the “fluo-4 fluorescence upon exposure to hypotonic medium” value (VR-OAC [1]) is reported as “does not increase” and the “VR-OAC currents on stimulation with hypotonic solution” value (VR-OAC [2]) is reported as “displayed characteristic VR-OAC currents”.

For “M680K: VR-OAC mutation of Lysine for Methionine at amino acid 680”, the “function in tissue culture cells” value (VR-OAC [3]) was “totally lacked function” and the “rescue of lack … to nose touch” value (C. elegans mutant osm-9) was “strikingly reduce rescue”.

For “rat VR1: rat vanilloid receptor 1, expressed as specificity control”, the “rescue of lack … to nose touch” value (C. elegans mutant osm-9) was “No rescue”.

B1: VROAC without both its N-terminus and C-terminus: VR-OAC deletion of both N-terminal (AA 1-410) and C-terminal (AA 741-781) regions (protein, UniProt Q9HBA0 411-740, looked up, fragment)
chain: YGPVYSSLYDLSSLDTCGEEASVLEILVYNSKIENRHEMLAVEPINELLRDKWRKFGAVSFYINVVSYLCAMVIFTLTAYYQPLEGTPPYPYRTTVDYLRLAGEVITLFTGVLFFFTNIKDLFMKKCPGVNSLFIDGSFQLLYFIYSVLVIVSAALYLAGIEAYLAVMVFALVLGWMNALYFTRGLKLTGTYSIMIQKILFKDLFRFLLVYLLFMIGYASALVSLLNPCANMKVCNEDQTNCTVPTYPSCRDSETFSTFLLDLFKLTIGMGDLEMLSSTKYPVVFIILLVTYIILTFVLLLNMLIALMGETVGQVSKESKHIWKLQWATT
With B1 the “rescue of lack … to nose touch” value (C. elegans mutant osm-9) was “still rescues”.

Reference: patent publication US20030013650A1, “VR-OAC, an osomotically activated channel protein, nucleic acids encoding it, and uses thereof” (The Rockefeller University, priority 2000, published 2003)
